Marks after values point to notes of the source that are not given here.
Tested on: herpes simplex infections
Format: in vivo, Human
Conditions: for Side Effects: human, in vivo; for Number Days To > 90% Improvement: topical, 1% in aqueous 30% ethanol and 5% neopurcellin, genital and oral herpes patients, placebo 6.250
Procedure: A clinical study was performed in a. classical double blind format with numbered vials containing either 1% sodium deoxycholic acid (DOC)in an aqueous solution of 30% ethanol and 5% neopurcellin (a mixture of inert medium chain fatty acids). The placebo was exactly the same, except that it lacked the sodium deoxycholic acid.

| SMILES | Efficacy by site of infection (genital / oral herpes) (description in words, patients of Example 2) | Side Effects | reduction of significant signs of herpes simplex infections including erythema, edema, vesiculation, ulceration and pain (summary of findings of Example 2) | Number Days To > 90% Improvement |
| --- | --- | --- | --- | --- |
| CC[N+](C)(CC)CCO[C@H]1CC[C@@]2(C)C(=CC[C@H]3[C@@H]4CC[C@H]([C@@H](C)O)[C@@]4(C)CC[C@@H]32)C1 [TX047, 3-beta-[2-(Diethylamino)ethoxy]-20-beta-hydroxypregn-5-ene methyl p-toluenesulphonate] | approx. 60% genital, 40% oral herpes. Efficacy was greatest in the treatment of oral infec-tions and less but clearly active, and use-ful for genital herpes. | 2* | markedly reduce the significant signs of herpes simplex infections | 1.774 days |
| C[C@H](CCC(=O)O)[C@H]1CC[C@H]2[C@@H]3CC[C@@H]4C[C@H](O)CC[C@]4(C)[C@H]3C[C@H](O)[C@]12C [DOC, sodium deoxycholic acid] |  | 1* |  | 1.608 days |

From patent EP0113998A2, “Composition and treatment for herpes simplex viral infections” (priority 1982, dated 1984)
